Where a name gives a salt, the structure may show the parent alone.
What follows are molecules tested on Acinetobacter baumannii ATCC17961 (assay: Antimicrobial susceptibility testing: 90% growth inhibitory concentration (IC90) determination). Settings: 90% growth inhibitory concentration; Iso-Sensitest broth, optical density at 600 nm over 16h, 35±2° C.; read-out: AB ATCC 17961 IC90.
Type: cell-based
Protocol: Antimicrobial Susceptibility Testing:
90% Growth Inhibitory Concentration (IC90) Determination
The in vitro antimicrobial activity of the compounds was determined according to the following procedure:
The assay used a 10-points Iso-Sensitest broth medium to measure quantitatively the in vitro activity of the compounds against Acinetobacter baumannii ATCC17961 or ATCC17978.
Stock compounds in DMSO were serially twofold diluted (e.g. range from 50 to 0.097 μM final concentration) in 384 wells microtiter plates and inoculated with 49 μl the bacterial suspension in Iso-Sensitest medium to have a final cell concentration of ˜5×10^(5) CFU/ml in a final volume/well of 50 ul/well. Microtiter plates were incubated at 35±2° C.
Bacterial cell growth was determined with the measurement of optical density at λ=600 nm each 20 minutes over a time course of 16h. Growth inhibition was calculated during the logarithmic growth of the bacterial cells with determination of the concentration inhibiting 50% (IC50) and 90% (IC90) of the growth.
Table 2 provides the 90% growth inhibitory concentrations (IC90) in micromoles per liter of the compounds of present invention obtained against the strain Acinetobacter baumannii ATCC17961.

| IC90 [µM] | SMILES |
| --- | --- |
| 0.16 | CN=S(C)(=O)c1ccc(Nc2nccn3c(-c4ccc(OC)c(F)c4F)cnc23)cc1C (stereo not shown) [Example 66, 3-(2,3-difluoro-4-methoxyphenyl)-N-(4-(N,S-dimethylsulfonimidoyl)-3-methylphenyl)imidazo[1,2-a]pyrazin-8-amine] |

Same assay, conditions: Acinetobacter baumannii, ATCC17961, 16 h, 90% growth inhibitory concentration; Iso-Sensitest broth, optical density at 600 nm over 16h, 35±2° C.; read-out: AB ATCC 17961 IC90

| SMILES | IC90 [µM] |
| --- | --- |
| CN=S(C)(=O)c1ccc(Nc2nccn3c(-c4ccc(OCC#N)c(F)c4F)cnc23)cc1C (stereo not shown) [Example 25, 2-(4-(8-((4-(N,S-dimethylsulfonimidoyl)-3-methylphenyl)amino)imidazo[1,2-a]pyrazin-3-yl)-2,3-difluorophenoxy) acetonitrile] | 0.048 |
| CN=S(C)(=O)c1ccc(Nc2nccn3c(-c4ccc(OC)c(F)c4F)cnc23)cc1F (stereo not shown) [Example 26, (4-((3-(2,3-difluoro-4-methoxyphenyl)imidazol[1,2-a]pyrazin-4-yl)amino)-2-fluorophenyl)(methyl)(methylimino)-l6-sulfanone] | 0.14 |
| COc1ccc(-c2cnc3c(Nc4ccc([S@](C)(=O)=NCCCN)c(C)c4)nccn23)c(F)c1F [Example 27, (−)-((3-aminopropyl)imino)(4-((3-(2,3-difluoro-4-methoxyphenyl)imidazo[1,2-a]pyrazin-8-yl)amino)-2-methylphenyl)(methyl)-l6-sulfanone] | 0.086 |
| COc1ccc(-c2cnc3c(Nc4ccc([S@@](C)(=O)=NCCCN)c(C)c4)nccn23)c(F)c1F [Example 28, (+)-((3-aminopropyl)imino) (4-((3-(2,3-difluoro-4-methoxyphenyl)imidazo[1,2-a]pyrazin-8-yl)amino)-2-methylphenyl) (methyl)-16-sulfanone] | 0.048 |
| COc1ccc(-c2cnc3c(Nc4ccc([S@](C)(=O)=NCCCNC(=O)[C@@H]5C[C@@H](O)CN5)c(C)c4)nccn23)c(F)c1F [Example 29, (2S,4R)—N-(3-(((−)-(4-((3-(2,3-difluoro-4-methoxyphenyl)imidazo[1,2-a]pyrazin-s-yl)amino)-2-methylphenyl)(methyl)(oxo)-l6-sulfaneylidene)amino)propyl)-4-hydroxypyrrolidine-2-carboxamide] | 0.18 |
| COc1ccc(-c2cnc3c(Nc4ccc([S@@](C)(=O)=NCCCNC(=O)[C@@H]5C[C@@H](O)CN5)c(C)c4)nccn23)c(F)c1F [Example 30, (2S,4R)-N-(3-(((+)-(4-((3-(2,3-difluoro-4-methoxyphenyl)imidazo[1,2-a]pyrazin-8-yl)amino)-2-methylphenyl) (methyl)(oxo)-16-sulfaneylidene)amino)propyl)-4-hydroxypyrrolidine-2-carboxamide dihydrochloride] | 0.13 |
| CN=S(=O)(c1ccc(Nc2nccn3c(-c4ccc(OC)c(F)c4F)cnc23)cc1C)N(C)C (stereo not drawn) [Example 31, 3-(2,3-difluoro-4-methoxy-phenyl)-N-[4-[S-(dimethylamino)-N-methyl-sulfonimidoyl]-3-methyl-phenyl]imidazo[1,2-a]pyrazin-8-amine] | 0.5 |
| COc1ccc(-c2cnc3c(Nc4ccc(NC(=O)CN5CCNCC5)c(C)c4)nccn23)cc1 [Example 37, N-(4-((3-(4-methoxyphenyl)imidazo[1,2-a]pyrazin-8-yl)amino)-2-methylphenyl)-2-(piperazin-1-yl)acetamide] | 0.21 |
| COc1ccc(-c2cnc3c(Nc4ccc(NC(C)=O)c(Cl)c4)nccn23)cc1 [Example 39, N-(2-chloro-4-((3-(4-methoxyphenyl)imidazo[1,2-a]pyrazin-8-yl)amino)phenyl)acetamide] | 0.1 |

Other lines, results leading:

| IC90 [µM] | SMILES |
| --- | --- |
| 0.076 | COc1ccc(-c2cnc3c(Nc4ccc(N5CCCC5=O)cc4)nccn23)cc1F [Example 48, 1-(4-((3-(3-fluoro-4-methoxyphenyl)imidazo[1,2-a]pyrazin-8-yl)amino)phenyl)pyrrolidin-2-one] |
| 0.094 | NCCCCCC1CC(=O)N(c2ccc(Nc3nccn4c(-c5ccc(OC(F)F)cc5)cnc34)cc2)C1 (stereo not shown) [Example 62, 4-(5-aminopentyl)-1-(4-((3-(4-(difluoromethoxy)phenyl)imidazo[1,2-a]pyrazin-s-yl)amino)phenyl)pyrrolidin-2-one] |
| 0.036 | NCCCCC1CC(=O)N(c2ccc(Nc3nccn4c(-c5ccc(OC(F)F)cc5)cnc34)cc2)C1 (stereo not shown) [Example 63, 4-(4-aminobutyl)-1-(4-((3-(4-(difluoromethoxy)phenyl)imidazo[1,2-a]pyrazin-8-yl)amino)phenyl)pyrrolidin-2-one] |
| 0.12 | NCCOCC1CC(=O)N(c2ccc(Nc3nccn4c(-c5ccc(OC(F)F)cc5)cnc34)cc2)C1 (stereo not shown) [Example 64, 4-((2-aminoethoxy)methyl)-1-(4-((3-(4-(difluoromethoxy)phenyl)imidazo[1,2-a]pyrazin-8-yl)amino)phenyl)pyrrolidin-2-one] |
| 0.2 | CN=S(C)(=O)c1ccc(Nc2nccn3c(-c4ccc(OC)c(F)c4F)cnc23)cc1 (stereo not shown) [Example 69, 3-(2,3-difluoro-4-methoxyphenyl)-N-(4-(N,S-dimethylsulfonimidoyl)phenyl)imidazo[1,2-a]pyrazin-8-amine] |
| 0.086 | CN=S(=O)(CCCN)c1ccc(Nc2nccn3c(-c4ccc(OC)c(F)c4F)cnc23)cc1 (stereo not shown) [Example 71, N-(4-(3-amino-N-methylpropylsulfonimidoyl)phenyl)-3-(2,3-difluoro-4-methoxyphenyl)imidazo[1,2-a]pyrazin-8-amine] |
| 0.12 | CN=S(=O)(CCCN)c1ccc(Nc2nccn3c(-c4ccc(OC)c(F)c4F)cnc23)cc1C (stereo not shown) [Example 72, N-(4-(3-amino-N-methylpropylsulfonimidoyl)-3-methylphenyl)-3-(2,3-difluoro-4-methoxyphenyl)imidazo[1,2-a]pyrazin-8-amine] |
| 0.33 | CN=S(=O)(c1ccc(Nc2nccn3c(-c4ccc(OC)c(F)c4F)cnc23)cc1C)C1CCN(C(=O)[C@@H]2C[C@@H](O)CN2)CC1 (stereo partly drawn) [Example 73, (4-(4-((3-(2,3-difluoro-4-methoxyphenyl)imidazo[1,2-a]pyrazin-8-yl)amino)-N,2-dimethylphenylsulfonimidoyl)piperidin-1-yl)((2S,4R)-4-hydroxypyrrolidin-2-yl)methanone] |
| 0.15 | CN=S(=O)(c1ccc(Nc2nccn3c(-c4ccc(OC)c(F)c4F)cnc23)cc1)C1CCN(C(=O)[C@@H]2C[C@@H](O)CN2)CC1 (stereo partly drawn) [Example 74, (4-(4-((3-(2,3-difluoro-4-methoxyphenyl)imidazo[1,2-a]pyrazin-8-yl)amino)-N-methylphenylsulfonimidoyl)piperidin-1-yl)((2S,4R)-4-hydroxypyrrolidin-2-yl)methanone] |
| 0.12 | O=C1CCCN1c1ccc(Nc2nccn3c(-c4ccc(OC(F)F)cc4)cnc23)cc1Cl [Example 94, 1-(2-chloro-4-((3-(4-(difluoromethoxy)phenyl)imidazo[1,2-a]pyrazin-8-yl)amino)phenyl)pyrrolidin-2-one] |
| 0.18 | COc1ccc(-c2cnc3c(Nc4ccc(S(=O)(=O)NCCOCCN(C)C)c(Cl)c4)nccn23)c(F)c1F [Example 97] |
| 0.29 | COc1ccc(-c2cnc3c(Nc4ccc(S(=O)(=O)N5CCN(CCCN(C)C)CC5)c(C)c4)nccn23)c(F)c1F [Example 98] |
| 0.28 | COc1ccc(-c2cnc3c(Nc4ccc(S(=O)(=O)NCCOCCN(C)C)c(C)c4)nccn23)c(F)c1F [Example 99, 4-((3-(2,3-difluoro-4-methoxyphenyl)imidazo[1,2-a]pyrazin-8-yl)amino)-N-(2-(2-(dimethylamino)ethoxy)ethyl)-methylbenzene sulfonamide] |
| 0.12 | COc1ccc(-c2cnc3c(Nc4ccc(S(=O)(=O)NCCOCCN)c(C)c4)nccn23)c(F)c1F [Example 100, N-(2-(2-aminoethoxy)ethyl)-4-((3-(2,3-difluoro-4-methoxyphenyl)imidazo[1,2-a]pyrazin-8-yl)amino)-2-methylbenzenesulfonamide hydrochloride] |

Same assay, conditions: Acinetobacter baumannii, ATCC17961, 16 h, read-out: AB ATCC 17961 IC90 (uM)

| SMILES | IC90 [µM] |
| --- | --- |
| COc1ccc(-c2cnc3c(Nc4ccc(S(C)(=O)=NCCCN)c(C)c4)nccn23)c(F)c1F (stereo not shown) [Example 67, N-[4-[N-(3-aminopropyl)-S-methyl-sulfonimidoyl]-3-methyl-phenyl]-3-(2,3-difluoro-4-methoxy-phenyl)imidazo[1,2-a]pyrazin-8-amine; formic acid] | 0.12 |
| COc1ccc(-c2cnc3c(Nc4ccc(S(C)(=O)=NCCCN)cc4)nccn23)c(F)c1F (stereo not shown) [Example 68, N-[4-[N-(3-aminopropyl)-S-methyl-sulfonimidoyl]phenyl]-3-(2,3-difluoro-4-methoxy-phenyl)imidazo[1,2-a]pyrazin-8-amine; formic acid] | 0.43 |
| CCc1cc(Nc2nccn3c(-c4ccc(OC)c(F)c4F)cnc23)ccc1S(C)(=O)=NCCCN (stereo not shown) [Example 70, N-[4-[N-(3-aminopropyl)-S-methyl-sulfonimidoyl]-3-ethyl-phenyl]-3-(2,3-difluoro-4-methoxy-phenyl)imidazo[1,2-a]pyrazin-8-amine; formic acid] | 0.19 |
| COc1ccc(-c2cnc3c(Nc4ccc(S(=O)(=O)N5CCN(CCCN(C)C)CC5)c(Cl)c4)nccn23)c(F)c1F [Example 96, N-(3-chloro-4-((4-(3-(dimethylamino)propyl)piperazin-1-yl)sulfonyl)phenyl)-3-(2,3-difluoro-4-methoxyphenyl)imidazo[1,2-a]pyrazin-8-amine] | 0.2 |

From US20230141403A1 (Hoffmann-La Roche Inc., priority 2020, published 2023)
